# From patent US9980943B2, “Methods of treating muscular dystrophy” (BOARD OF REGENTS OF THE NEVADA SYSTEM OF HIGHER EDUCATION, …, priority 2013, dated 2018)
# How the values were obtained:
# Format in all cases: cell-based, mouse
# [1] = tested on: α7 integrin (LacZ reporter in α7βgal+/− myoblasts); test: Myoblast α7+/LacZ integrin FDG assay (Burkin assay in myoblasts, 96-well); conditions: for Burkin Assay in Myoblasts, signal relative to DMSO: α7+/LacZ myoblasts, 96-well
# [2] = tested on: α7 integrin (LacZ reporter in α7+/LacZ myotubes); test: Myotube α7 integrin FDG assay (Burkin assay in myotubes, 96-well); conditions: for Burkin Assay in Myotubes, value relative to DMSO: SU9516 analogs, 96-well, N=3-6
# [3] = tested on: β-galactosidase in CMV-LacZ C2C12 myoblasts; test: CMV-LacZ secondary screen in C2C12 myoblasts (β-Gal stabilizing assay); conditions: for CMV-LACZ in Myoblasts (β-galactosidase activity relative to DMSO): CMV-LacZ C2C12 myoblasts; for CMV-LACZ in Myoblasts, value relative to DMSO: SU9516 analogs, C2C12 CMV-LacZ, N=2
# Summary of the method: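 CMV-LacZ C2C12 line (clonal, FDG-screened); myoblasts/myotubes dosed 0.5–40 μM (0.5, 1, 5, 10, 20, 40 μM); n=2 per point; β-gal stabilization read-out.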
# [4] = tested on: β-galactosidase in CMV-LacZ C2C12 myotubes; test: CMV-LacZ secondary screen in C2C12 myotubes (β-Gal stabilizing assay); conditions: for CMV-LACZ in Myotubes, signal relative to DMSO: C2C12 CMV-LacZ myotubes, fold relative to DMSO; for CMV-LACZ in Myotubes, value relative to DMSO: SU9516 analogs, C2C12 CMV-LacZ, N=2
# Summary of the method: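 β-gal stabilization was measured in C2C12 myoblasts or myotubes stably transfected with a CMV-driven LacZ construct, using the FDG β-gal assay. Compounds were tested in dose-response at 0.5, 1, 5, 10, 20 and 40 μM, with two replicates per point.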
# [5] = Mus musculus, Myoblast, 48 h, read-out: Burkin Assay in Myoblasts, value relative to DMSO
structure (smiles),measurement,setting,value
O=C(NCCc1ccccc1)C1CCC(=O)N1C1CCCC1 (stereo not drawn) [MLS001200665-01],"Burkin Assay in Myoblasts, signal relative to DMSO",[1]; 0.5 uM,0.8982
same,"Burkin Assay in Myoblasts, signal relative to DMSO",[1]; 1 uM,0.8539
same,"Burkin Assay in Myoblasts, signal relative to DMSO",[1]; 5 uM,1.003
same,"Burkin Assay in Myoblasts, signal relative to DMSO",[1]; 10 uM,1.245
same,"Burkin Assay in Myoblasts, signal relative to DMSO",[1]; 20 uM,1.143
same,"Burkin Assay in Myoblasts, signal relative to DMSO",[1]; 40 uM,1.029
same,"Burkin Assay in Myotubes, α7 integrin LacZ reporter signal relative to DMSO",[2]; 0.5 uM,1.031
same,"Burkin Assay in Myotubes, α7 integrin LacZ reporter signal relative to DMSO",[2]; 1 uM,0.8461
same,"Burkin Assay in Myotubes, α7 integrin LacZ reporter signal relative to DMSO",[2]; 5 uM,1.091
same,"Burkin Assay in Myotubes, α7 integrin LacZ reporter signal relative to DMSO",[2]; 10 uM,1.126
same,"Burkin Assay in Myotubes, α7 integrin LacZ reporter signal relative to DMSO",[2]; 20 uM,0.8365
same,"Burkin Assay in Myotubes, α7 integrin LacZ reporter signal relative to DMSO",[2]; 40 uM,0.8877
same,CMV-LACZ in Myoblasts (β-galactosidase activity relative to DMSO),[3]; 0.5 uM,1.1043
same,CMV-LACZ in Myoblasts (β-galactosidase activity relative to DMSO),[3]; 1 uM,0.9783
same,CMV-LACZ in Myoblasts (β-galactosidase activity relative to DMSO),[3]; 5 uM,0.9398
same,CMV-LACZ in Myoblasts (β-galactosidase activity relative to DMSO),[3]; 10 uM,1.0036
same,CMV-LACZ in Myoblasts (β-galactosidase activity relative to DMSO),[3]; 20 uM,0.7152
same,CMV-LACZ in Myoblasts (β-galactosidase activity relative to DMSO),[3]; 40 uM,0.9937
same,"CMV-LACZ in Myotubes, signal relative to DMSO",[4]; 0.5 uM,1.1543
same,"CMV-LACZ in Myotubes, signal relative to DMSO",[4]; 1 uM,0.9695
same,"CMV-LACZ in Myotubes, signal relative to DMSO",[4]; 5 uM,1.1274
same,"CMV-LACZ in Myotubes, signal relative to DMSO",[4]; 10 uM,0.9662
same,"CMV-LACZ in Myotubes, signal relative to DMSO",[4]; 20 uM,1.1800
same,"CMV-LACZ in Myotubes, signal relative to DMSO",[4]; 40 uM,1.2706
CCc1nc(/C=C2\C(=O)Nc3ccccc32)c[nH]1 [MLS000834755-01],fold induction at 0.5 µM,[1]; [5],1.27
same,fold induction at 1 µM,[1]; [5],1.08
same,fold induction at 5 µM,[1]; [5],1.08
same,fold induction at 10 µM,[1]; [5],1.16
same,fold induction at 20 µM,[1]; [5],1.19
same,fold induction at 40 µM,[1]; [5],0.796
same,"Burkin Assay in Myotubes, value relative to DMSO",[2]; 0.5 uM,1.263
same,"Burkin Assay in Myotubes, value relative to DMSO",[2]; 1 uM,1.232
same,"Burkin Assay in Myotubes, value relative to DMSO",[2]; 5 uM,1.003
same,"Burkin Assay in Myotubes, value relative to DMSO",[2]; 10 uM,0.9868
same,"Burkin Assay in Myotubes, value relative to DMSO",[2]; 20 uM,0.9687
same,"Burkin Assay in Myotubes, value relative to DMSO",[2]; 40 uM,0.816
same,"CMV-LACZ in Myoblasts, value relative to DMSO",[3]; 0.5 uM,1.0317
same,"CMV-LACZ in Myoblasts, value relative to DMSO",[3]; 1 uM,1.0400
same,"CMV-LACZ in Myoblasts, value relative to DMSO",[3]; 5 uM,0.9591
same,"CMV-LACZ in Myoblasts, value relative to DMSO",[3]; 10 uM,0.9834
same,"CMV-LACZ in Myoblasts, value relative to DMSO",[3]; 20 uM,0.9007
same,"CMV-LACZ in Myoblasts, value relative to DMSO",[3]; 40 uM,0.9133
same,"CMV-LACZ in Myotubes, value relative to DMSO",[4]; 0.5 uM,0.5547
same,"CMV-LACZ in Myotubes, value relative to DMSO",[4]; 1 uM,1.2863
same,"CMV-LACZ in Myotubes, value relative to DMSO",[4]; 5 uM,1.0514
same,"CMV-LACZ in Myotubes, value relative to DMSO",[4]; 10 uM,1.1048
same,"CMV-LACZ in Myotubes, value relative to DMSO",[4]; 20 uM,1.2989
same,"CMV-LACZ in Myotubes, value relative to DMSO",[4]; 40 uM,0.8789
